From PMC10879502, “Linking ATP and allosteric sites to achieve superadditive binding with bivalent EGFR kinase inhibitors” (Communications Chemistry, 2024)

Assays:
Test in all cases: KINOMEscan
Format in all cases: binding
Conditions in all cases: 1 μM
[1] = target: T1, ABL1(H396P)-phosphorylated (Homo sapiens, UniProt P00519, H396P)
T1 construct: purchased Eurofins DiscoverX Corporation

ANKK1 = ANKK1 (Homo sapiens, UniProt Q8NFD2)
BLK = BLK (Homo sapiens, UniProt P51451)
CAMK1G = target: T2, CAMK1G (Homo sapiens, UniProt Q96NX5)
T2 construct: purchased Eurofins DiscoverX Corporation (KINOMEscan)

CDK7 = CDK7 (Homo sapiens, UniProt P50613)
Chain of CDK7 (P50613 whole entry): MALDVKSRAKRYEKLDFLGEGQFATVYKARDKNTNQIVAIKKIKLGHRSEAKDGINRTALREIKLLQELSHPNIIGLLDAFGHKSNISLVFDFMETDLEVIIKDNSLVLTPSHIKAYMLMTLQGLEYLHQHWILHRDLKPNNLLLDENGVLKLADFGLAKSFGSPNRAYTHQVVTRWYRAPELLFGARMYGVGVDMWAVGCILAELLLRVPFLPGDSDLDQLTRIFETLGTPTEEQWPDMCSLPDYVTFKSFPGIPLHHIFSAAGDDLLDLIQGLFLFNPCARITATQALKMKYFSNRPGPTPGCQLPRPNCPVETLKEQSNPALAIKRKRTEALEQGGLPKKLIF

CHEK1 = CHEK1 (Homo sapiens, UniProt O14757)
DCAMKL3 = target: T3, DCAMKL3 (Homo sapiens, UniProt Q9C098)
T3 construct: purchased Eurofins DiscoverX Corporation

EGFR(L861Q) = EGFR(L861Q) (Homo sapiens, UniProt P00533, L861Q)
EPHA2 = EPHA2 (Homo sapiens, UniProt P29317)
Chain of EPHA2 (P29317 24-976): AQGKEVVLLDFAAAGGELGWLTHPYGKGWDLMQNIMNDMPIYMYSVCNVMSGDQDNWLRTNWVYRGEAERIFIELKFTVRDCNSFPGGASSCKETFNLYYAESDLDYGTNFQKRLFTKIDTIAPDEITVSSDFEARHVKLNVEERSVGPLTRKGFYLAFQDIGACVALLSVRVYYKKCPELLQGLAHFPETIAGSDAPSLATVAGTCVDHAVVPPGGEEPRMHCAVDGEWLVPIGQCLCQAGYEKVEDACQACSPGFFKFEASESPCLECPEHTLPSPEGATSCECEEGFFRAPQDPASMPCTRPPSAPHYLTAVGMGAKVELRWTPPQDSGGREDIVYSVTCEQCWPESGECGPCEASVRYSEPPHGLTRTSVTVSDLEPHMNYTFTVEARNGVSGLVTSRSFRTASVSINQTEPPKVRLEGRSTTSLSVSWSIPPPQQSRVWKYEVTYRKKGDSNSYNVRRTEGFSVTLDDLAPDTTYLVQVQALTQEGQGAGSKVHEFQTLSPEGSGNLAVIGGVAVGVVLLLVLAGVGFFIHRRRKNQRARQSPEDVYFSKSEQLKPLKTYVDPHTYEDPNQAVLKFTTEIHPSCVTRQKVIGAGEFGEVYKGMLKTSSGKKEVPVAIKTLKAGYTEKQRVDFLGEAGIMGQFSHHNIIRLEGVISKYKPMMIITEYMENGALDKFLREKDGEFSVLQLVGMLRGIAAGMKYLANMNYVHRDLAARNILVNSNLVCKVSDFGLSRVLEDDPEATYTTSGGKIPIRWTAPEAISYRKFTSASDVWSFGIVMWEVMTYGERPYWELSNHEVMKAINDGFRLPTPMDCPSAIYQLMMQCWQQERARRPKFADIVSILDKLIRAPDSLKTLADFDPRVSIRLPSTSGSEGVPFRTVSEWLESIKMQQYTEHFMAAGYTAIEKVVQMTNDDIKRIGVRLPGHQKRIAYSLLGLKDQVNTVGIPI

EPHA7 = EPHA7 (Homo sapiens, UniProt Q15375)
ERK1 = ERK1 (Homo sapiens, UniProt P27361)
ERK5 = ERK5 (Homo sapiens, UniProt Q13164)
FLT1 = FLT1 (Homo sapiens, UniProt P17948)
FLT3(ITD) = test system: FLT3(ITD)
GCN2(Kin.Dom.2+S808G) = target: T4, GCN2(Kin.Dom.2+S808G) (Homo sapiens, UniProt Q9P2K8, S808G)
T4 construct: GCN2(Kin.Dom.2+S808G); purchased Eurofins DiscoverX Corporation

LKB1 = target: T5, LKB1 (Homo sapiens, UniProt Q15831)
T5 construct: purchased Eurofins DiscoverX Corporation

LYN = target: T6, LYN (Homo sapiens, UniProt P07948)
T6 construct: purchased Eurofins DiscoverX Corporation

MINK = target: T7, MINK (Homo sapiens, UniProt Q8N4C8)
T7 construct: purchased Eurofins DiscoverX Corporation
T7 sequence (Q8N4C8 whole entry): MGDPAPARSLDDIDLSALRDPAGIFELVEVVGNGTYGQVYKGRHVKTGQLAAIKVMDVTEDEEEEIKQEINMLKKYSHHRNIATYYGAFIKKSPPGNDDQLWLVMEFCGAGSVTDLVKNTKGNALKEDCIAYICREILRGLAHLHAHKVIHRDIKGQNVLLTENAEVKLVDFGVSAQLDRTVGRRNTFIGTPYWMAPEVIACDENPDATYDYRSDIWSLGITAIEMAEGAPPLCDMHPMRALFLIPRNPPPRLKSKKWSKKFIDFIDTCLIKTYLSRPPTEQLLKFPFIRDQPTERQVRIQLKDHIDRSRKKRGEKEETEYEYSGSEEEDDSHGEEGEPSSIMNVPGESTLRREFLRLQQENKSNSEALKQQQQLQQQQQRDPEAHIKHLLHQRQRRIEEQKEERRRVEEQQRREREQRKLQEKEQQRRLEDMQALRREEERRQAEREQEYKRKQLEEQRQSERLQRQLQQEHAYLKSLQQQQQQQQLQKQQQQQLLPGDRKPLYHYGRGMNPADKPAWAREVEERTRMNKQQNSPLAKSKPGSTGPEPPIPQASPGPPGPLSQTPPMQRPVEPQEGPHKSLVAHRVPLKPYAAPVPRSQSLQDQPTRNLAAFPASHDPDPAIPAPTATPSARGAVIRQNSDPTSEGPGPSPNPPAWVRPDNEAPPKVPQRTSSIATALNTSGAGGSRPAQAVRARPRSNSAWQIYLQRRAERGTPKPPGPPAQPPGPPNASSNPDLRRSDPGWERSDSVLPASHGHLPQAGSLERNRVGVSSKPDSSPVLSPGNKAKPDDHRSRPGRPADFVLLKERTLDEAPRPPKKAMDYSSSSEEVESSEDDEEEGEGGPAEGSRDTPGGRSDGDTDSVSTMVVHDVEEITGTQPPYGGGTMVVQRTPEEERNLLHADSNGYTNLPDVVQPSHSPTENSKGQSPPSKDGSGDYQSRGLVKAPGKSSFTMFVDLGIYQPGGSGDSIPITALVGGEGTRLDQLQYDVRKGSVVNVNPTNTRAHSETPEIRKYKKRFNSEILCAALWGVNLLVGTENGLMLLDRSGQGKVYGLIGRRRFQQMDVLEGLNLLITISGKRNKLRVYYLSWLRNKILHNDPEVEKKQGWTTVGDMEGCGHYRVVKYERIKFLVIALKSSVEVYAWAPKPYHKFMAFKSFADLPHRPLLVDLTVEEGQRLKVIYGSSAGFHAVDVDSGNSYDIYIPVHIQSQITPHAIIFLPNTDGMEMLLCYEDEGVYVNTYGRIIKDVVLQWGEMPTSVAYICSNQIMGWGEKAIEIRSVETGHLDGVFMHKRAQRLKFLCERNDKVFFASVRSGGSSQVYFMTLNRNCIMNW

MST1 = target: T8, MST1 (Homo sapiens, UniProt Q13043)
T8 construct: purchased Eurofins DiscoverX Corporation

MUSK = target: T9, MUSK (Homo sapiens, UniProt O15146)
T9 construct: purchased Eurofins DiscoverX Corporation

NEK2 = target: T10, NEK2 (Homo sapiens, UniProt P51955)
T10 construct: purchased Eurofins DiscoverX Corporation

NEK6 = NEK6 (Homo sapiens, UniProt Q9HC98)
p38-gamma = p38-gamma (Homo sapiens, UniProt P53778)
PAK3 = PAK3 (Homo sapiens, UniProt O75914)
PAK6 = PAK6 (Homo sapiens, UniProt Q9NQU5)
PFTK1 = PFTK1 (Homo sapiens, UniProt O94921)
Chain of PFTK1 (O94921 whole entry): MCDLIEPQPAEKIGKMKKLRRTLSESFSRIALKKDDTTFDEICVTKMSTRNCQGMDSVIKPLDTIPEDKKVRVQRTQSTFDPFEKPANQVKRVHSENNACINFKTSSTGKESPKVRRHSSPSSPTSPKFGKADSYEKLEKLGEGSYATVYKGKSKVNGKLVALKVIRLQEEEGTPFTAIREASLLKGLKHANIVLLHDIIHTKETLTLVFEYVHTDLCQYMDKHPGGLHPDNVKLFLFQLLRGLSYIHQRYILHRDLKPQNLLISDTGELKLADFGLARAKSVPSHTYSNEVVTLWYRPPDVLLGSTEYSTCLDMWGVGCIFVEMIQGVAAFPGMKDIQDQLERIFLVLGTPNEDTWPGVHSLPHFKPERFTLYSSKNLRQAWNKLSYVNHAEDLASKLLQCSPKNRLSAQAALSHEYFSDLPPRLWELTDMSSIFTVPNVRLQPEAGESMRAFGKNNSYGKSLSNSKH

PIK3CA(E545K) = PIK3CA(E545K) (Homo sapiens, UniProt P42336, E545K)
PIK3CA(M1043I) = PIK3CA(M1043I) (Homo sapiens, UniProt P42336, M1043I)
PIM1 = PIM1 (Homo sapiens, UniProt P11309)
PLK4 = PLK4 (Homo sapiens, UniProt O00444)
Chain of PLK4 (O00444 whole entry): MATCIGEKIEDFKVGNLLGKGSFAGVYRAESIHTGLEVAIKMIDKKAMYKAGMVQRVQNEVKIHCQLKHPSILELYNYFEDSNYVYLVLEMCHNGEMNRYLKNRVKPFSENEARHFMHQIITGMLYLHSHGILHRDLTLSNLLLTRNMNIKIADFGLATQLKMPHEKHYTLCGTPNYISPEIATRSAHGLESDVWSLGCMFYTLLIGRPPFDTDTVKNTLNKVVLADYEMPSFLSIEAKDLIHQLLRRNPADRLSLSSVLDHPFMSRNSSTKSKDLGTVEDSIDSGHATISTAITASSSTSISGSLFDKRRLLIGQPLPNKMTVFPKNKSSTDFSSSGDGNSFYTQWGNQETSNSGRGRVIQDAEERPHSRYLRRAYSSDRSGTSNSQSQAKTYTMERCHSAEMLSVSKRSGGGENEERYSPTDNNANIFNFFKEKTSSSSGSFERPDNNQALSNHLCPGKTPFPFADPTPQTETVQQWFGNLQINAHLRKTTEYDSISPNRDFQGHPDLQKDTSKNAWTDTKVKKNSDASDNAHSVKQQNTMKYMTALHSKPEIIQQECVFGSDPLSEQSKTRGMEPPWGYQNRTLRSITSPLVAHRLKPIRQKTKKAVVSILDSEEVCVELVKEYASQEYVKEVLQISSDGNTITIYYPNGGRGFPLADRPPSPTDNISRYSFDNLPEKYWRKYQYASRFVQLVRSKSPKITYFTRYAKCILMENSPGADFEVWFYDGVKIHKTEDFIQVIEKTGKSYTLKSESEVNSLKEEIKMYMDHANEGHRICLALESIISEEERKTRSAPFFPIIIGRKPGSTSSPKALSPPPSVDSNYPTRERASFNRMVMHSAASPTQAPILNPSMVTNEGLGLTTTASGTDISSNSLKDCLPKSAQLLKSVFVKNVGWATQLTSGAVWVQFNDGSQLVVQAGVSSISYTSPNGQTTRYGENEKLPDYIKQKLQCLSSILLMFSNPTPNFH

ROCK2 = ROCK2 (Homo sapiens, UniProt O75116)
[2] = target: RPS6KA5(Kin.Dom.2-C-terminal) (Homo sapiens, UniProt O75582)
Chain of RPS6KA5(Kin.Dom.2-C-terminal) (O75582 426-687 limits assumed): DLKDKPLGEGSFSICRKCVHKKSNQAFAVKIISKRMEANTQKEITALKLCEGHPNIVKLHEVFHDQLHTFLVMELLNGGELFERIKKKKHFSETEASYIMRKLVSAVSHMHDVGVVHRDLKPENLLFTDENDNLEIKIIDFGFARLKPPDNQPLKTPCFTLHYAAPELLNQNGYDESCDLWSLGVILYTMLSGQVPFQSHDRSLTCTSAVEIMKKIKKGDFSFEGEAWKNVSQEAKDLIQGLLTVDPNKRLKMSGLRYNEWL

[3] = target: RSK1(Kin.Dom.2-C-terminal) (Homo sapiens, UniProt Q15418)
SNRK = SNRK (Homo sapiens, UniProt Q9NRH2)
SRPK3 = SRPK3 (Homo sapiens, UniProt Q9UPE1)
TAK1 = target: T11, TAK1 (Homo sapiens, UniProt O43318)
T11 construct: purchased Eurofins DiscoverX Corporation
T11 sequence (O43318 whole entry): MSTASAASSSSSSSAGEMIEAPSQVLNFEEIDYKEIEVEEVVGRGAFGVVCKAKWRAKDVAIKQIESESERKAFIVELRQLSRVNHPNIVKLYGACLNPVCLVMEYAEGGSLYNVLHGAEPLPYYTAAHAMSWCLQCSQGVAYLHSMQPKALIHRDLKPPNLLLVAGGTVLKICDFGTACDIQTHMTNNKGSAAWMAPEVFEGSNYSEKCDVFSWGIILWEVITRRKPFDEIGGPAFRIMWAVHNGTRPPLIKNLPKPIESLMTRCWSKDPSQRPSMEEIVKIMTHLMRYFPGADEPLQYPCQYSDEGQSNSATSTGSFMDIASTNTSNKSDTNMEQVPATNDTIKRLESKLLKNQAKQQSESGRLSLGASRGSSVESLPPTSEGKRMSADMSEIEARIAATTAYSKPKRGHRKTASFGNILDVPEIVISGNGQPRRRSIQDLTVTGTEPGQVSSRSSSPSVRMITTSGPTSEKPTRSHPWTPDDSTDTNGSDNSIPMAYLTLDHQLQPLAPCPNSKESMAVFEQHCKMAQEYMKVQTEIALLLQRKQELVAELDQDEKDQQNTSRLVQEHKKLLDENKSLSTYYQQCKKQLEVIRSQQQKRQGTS

TAOK3 = target: T12, TAOK3 (Homo sapiens, UniProt Q9H2K8)
T12 construct: purchased Eurofins DiscoverX Corporation

TIE1 = target: T13, TIE1 (Homo sapiens, UniProt P35590)
T13 construct: purchased Eurofins DiscoverX Corporation

TRPM6 = target: T14, TRPM6 (Homo sapiens, UniProt Q9BX84)
T14 construct: purchased Eurofins DiscoverX Corporation

[4] = target: TYK2(JH2domain-pseudokinase) (Homo sapiens, UniProt P29597)
WNK4 = WNK4 (Homo sapiens, UniProt Q96J92)
YES = YES (Homo sapiens, UniProt P07947)

C=CC(=O)Nc1ccc(OC)c(Nc2cc(-c3[nH]c(CC)nc3-c3cccc(NC(=O)c4cccc5c4NC(=O)c4ccccc4N5)c3)ccn2)c1 [Compound 4]
POC [1]: 74% of control
POC (ANKK1): 87% of control
POC (BLK): 1.7% of control
POC (CAMK1G): 100% of control
POC (CDK7): 49% of control
POC (CHEK1): 100% of control
POC (DCAMKL3): 86% of control
POC (EGFR(L861Q)): 2.7% of control
POC (EPHA2): 100% of control
POC (EPHA7): 100% of control
POC (ERK1): 99% of control
POC (ERK5): 100% of control
POC (FLT1): 100% of control
POC (FLT3(ITD)): 100% of control
POC (GCN2(Kin.Dom.2+S808G)): 100% of control
POC (LKB1): 100% of control
POC (LYN): 22% of control
POC (MINK): 10% of control
POC (MST1): 6% of control
POC (MUSK): 100% of control
POC (NEK2): 98% of control
POC (NEK6): 100% of control
POC (p38-gamma): 100% of control
POC (PAK3): 70% of control
POC (PAK6): 93% of control
POC (PFTK1): 90% of control
POC (PIK3CA(E545K)): 100% of control
POC (PIK3CA(M1043I)): 55% of control
POC (PIM1): 94% of control
POC (PLK4): 71% of control
POC (ROCK2): 94% of control
POC [2]: 100% of control
POC [3]: 75% of control
POC (SNRK): 82% of control
POC (SRPK3): 100% of control
POC (TAK1): 95% of control
POC (TAOK3): 95% of control
POC (TIE1): 100% of control
POC (TRPM6): 99% of control
POC [4]: 100% of control
POC (WNK4): 85% of control
POC (YES): 20% of control
